From publication PMC9079959, “Substituted spirooxindole derivatives as potent anticancer agents through inhibition of phosphodiesterase 1” (RSC Advances, 2018)
Where two headings read alike, the source gives them in different places.

Assays:
PC-3 cells = experiment: MTT cytotoxicity assay, prostate cancer cell line PC-3; format: cell-based; conditions: for SI (selectivity index): IC50 normal (VERO-B) / IC50 cancer (PC-3)
Description: (§1) The cytotoxic activity of the compounds was tested against different mammalian cancer cells, prostate carcinoma cells (PC-3), hepatocellular carcinoma (HepG2) and colon cancer cells (HCT-116). African green monkey kidney cells (Vero-B) were used as normal cells to study the selectivity towards the cancer cells. The cell lines were obtained from the American Type Culture Collection (ATCC). The cells were cultivated at 37 °C and 10% CO2 in DMEM (Lonza, Germany) medium supplemented with 10% fetal bovine serum (Lonza, Germany), 100 IU ml^−1 penicillin and 100 μg ml^−1 streptomycin (Lonza, Germany). […] The spirooxindole derivatives were solubilized in DMSO and stored at −20 °C. The viability of the cells was quantified using 3-(4,5-dimethylthiazol-2-yl)-2,5-diphenyl tetrazolium bromide (MTT), which measures the activity of mitochondrial succinate dehydrogenase in viable cells.[45,46]
(§2) The cells were seeded in 96-well plates at a concentration of 5 × 10^4 cells per ml (100 μl per well). […] DMSO was used as a negative control (0.1%). The cells were incubated for 48 h. After that, 15 μl of MTT (5 mg ml^−1 in PBS) was added to each well and incubated for another 4 h. The formazan crystals were solubilized by 100 μl of acidified SDS solution (10% SDS/0.01 N HCl in PBS). The absorbance was measured after 14 h of incubation at 37 °C and under 5% CO2 at 570 nm by using a BioTek microplate reader. Each experiment was repeated 3 times and a standard deviation was calculated (SD±). […] The growth of the cells was monitored and the images were acquired by Gx microscopes (GXMGXD202 Inverted Microscope) at 10× magnification.

HepG2 cells = experiment: MTT cytotoxicity assay, hepatocellular carcinoma HepG2; format: cell-based; conditions: for IC50: Homo sapiens, HepG2; for SI (selectivity index): IC50 normal (VERO-B) / IC50 cancer (HepG2)
Description: as §1, §2

HCT-116 cells = experiment: MTT cytotoxicity assay, colorectal cancer cell line HCT-116; format: cell-based; conditions: for SI (selectivity index): IC50 normal (VERO-B) / IC50 cancer (HCT-116)
Description: as §1, §2

Vero-B cells = experiment: MTT cytotoxicity assay, normal cells Vero-B; format: cell-based, African green monkey; conditions: 48 h
Description: as §1, §2

[1] = Homo sapiens, PC-3, MTT, 48 h, ± SD of 3 experiments, read-out: PC-3 (IC50)
[2] = Homo sapiens, PC-3, MTT, 48 h, read-out: PC-3 (IC50, μg ml^−1)
[3] = MTT, 48 h, ± SD of 3 experiments, read-out: HepG2 (IC50)
[4] = MTT, 48 h, read-out: HepG2 (IC50, μg ml^−1)
[5] = Homo sapiens, HCT-116, MTT, 48 h, ± SD of 3 experiments, read-out: HCT-116 (IC50)
[6] = Homo sapiens, HCT-116, MTT, 48 h, read-out: HCT-116 (IC50, μg ml^−1)

O=C(c1c[nH]c2ccccc12)[C@@H]1C(c2cccs2)[C@@H]2CCCN2[C@@]12C(=O)Nc1ccccc12 (stereo partly drawn) [4l, (2′R,3S,7a′S)-2′-(1H-Indole-3-carbonyl)-1′-(thiophen-2-yl)-1′,2′,5′,6′,7′,7a′-hexahydrospiro[indoline-3,3′-pyrrolizin]-2-one]
melting point: 157 to 159 °C | IC50 (PC-3 cells; [1]): 29 ± 3 µM | IC50 (PC-3 cells; [2]): 13 µg/mL | SI (selectivity index) (PC-3 cells): 2.1 | IC50 (HepG2 cells; [3]): 50 ± 3 µM | IC50 (HepG2 cells; [4]): 22.7 µg/mL | SI (selectivity index) (HepG2 cells): 1.2 | IC50 (HCT-116 cells; [5]): 50 ± 3.5 µM | IC50 (HCT-116 cells; [6]): 22.7 µg/mL | SI (selectivity index) (HCT-116 cells): 1.2 | IC50 (Vero-B cells; Chlorocebus sabaeus, Vero B): 60 µM

O=C(c1c[nH]c2ccccc12)[C@@H]1[C@@H](c2ccc(C(F)(F)F)cc2)[C@@H]2CCCN2[C@]12C(=O)Nc1ccccc12 [4k]
melting point: 153 to 155 °C | IC50 (PC-3 cells; [1]): 9 ± 0.2 µM | IC50 (PC-3 cells; [2]): 4.6 µg/mL | IC50 (HepG2 cells; [3]): 10 ± 1.25 µM | IC50 (HepG2 cells; [4]): 5.2 µg/mL | SI (selectivity index) (HepG2 cells): 2.2 | IC50 (HCT-116 cells; [5]): 9 ± 0.5 µM | IC50 (HCT-116 cells; [6]): 4.6 µg/mL | SI (selectivity index) (HCT-116 cells): 2.4 | IC50 (Vero-B cells; Chlorocebus sabaeus, Vero B): 22 µM

Cc1cccc(C2[C@@H](C(=O)c3c[nH]c4ccccc34)[C@]3(C(=O)Nc4ccccc43)N3CCC[C@@H]23)c1 (stereo partly drawn) [4i, (2′R,3S,7a′S)-2′-(1H-Indole-3-carbonyl)-1′-(m-tolyl)-1′,2′,5′,6′,7′,7a′-hexahydrospiro[indoline-3,3′-pyrrolizin]-2-one]
melting point: 141 to 143 °C | IC50 (PC-3 cells; [1]): 7 ± 0.6 µM | IC50 (PC-3 cells; [2]): 3.2 µg/mL | IC50 (HepG2 cells; [3]): 7 ± 0.4 µM | IC50 (HepG2 cells; [4]): 3.2 µg/mL | SI (selectivity index) (HepG2 cells): 2.1 | IC50 (HCT-116 cells; [5]): 7 ± 0.2 µM | IC50 (HCT-116 cells; [6]): 3.2 µg/mL | SI (selectivity index) (HCT-116 cells): 2.1 | IC50 (Vero-B cells; Chlorocebus sabaeus, Vero B): 15 µM

COc1ccc(C2[C@@H](C(=O)c3c[nH]c4ccccc34)[C@]3(C(=O)Nc4ccccc43)N3CCC[C@@H]23)cc1 (stereo partly drawn) [4e, (2′R,3S,7a′S)-2′-(1H-Indole-3-carbonyl)-1′-(4-methoxyphenyl)-1′,2′,5′,6′,7′,7a′-hexahydrospiro[indoline-3,3′-pyrrolizin]-2-one]
melting point: 122 to 124 °C | IC50 (PC-3 cells; [1]): 15.5 ± 2 µM | IC50 (PC-3 cells; [2]): 7.4 µg/mL | SI (selectivity index) (PC-3 cells): 1.7 | IC50 (HepG2 cells; [3]): 17.3 ± 3 µM | IC50 (HepG2 cells; [4]): 8.3 µg/mL | SI (selectivity index) (HepG2 cells): 1.5 | IC50 (HCT-116 cells; [5]): 26 ± 2 µM | IC50 (HCT-116 cells; [6]): 12.4 µg/mL | SI (selectivity index) (HCT-116 cells): 1 | IC50 (Vero-B cells; Chlorocebus sabaeus, Vero B): 26 µM

Cc1ccc(C2[C@@H](C(=O)c3c[nH]c4ccccc34)[C@]3(C(=O)Nc4ccccc43)N3CCC[C@@H]23)cc1 (stereo partly drawn) [4b, (2′R,3S,7a′S)-2′-(1H-Indole-3-carbonyl)-1′-(p-tolyl)-1′,2′,5′,6′,7′,7a′-hexahydrospiro[indoline-3,3′-pyrrolizin]-2-one]
melting point: 174 to 176 °C | IC50 (PC-3 cells; [1]): 16.3 ± 2 µM | IC50 (PC-3 cells; [2]): 7.5 µg/mL | SI (selectivity index) (PC-3 cells): 1.6 | IC50 (HepG2 cells; [3]): 11.8 ± 2 µM | IC50 (HepG2 cells; [4]): 5.4 µg/mL | SI (selectivity index) (HepG2 cells): 2.2 | IC50 (HCT-116 cells; [5]): 21 ± 2 µM | IC50 (HCT-116 cells; [6]): 9.7 µg/mL | SI (selectivity index) (HCT-116 cells): 1.2 | IC50 (Vero-B cells; Chlorocebus sabaeus, Vero B): 26 µM

O=C(c1c[nH]c2ccccc12)[C@@H]1C(c2ccc(Cl)cc2)[C@@H]2CCCN2[C@@]12C(=O)Nc1ccccc12 (stereo partly drawn) [4c, (2′R,3S,7a′S)-1′-(4-Chlorophenyl)-2′-(1H-indole-3-carbonyl)-1′,2′,5′,6′,7′,7a′-hexahydrospiro[indoline-3,3′-pyrrolizin]-2-one]
melting point: 165 to 167 °C | IC50 (PC-3 cells; [1]): 11.8 ± 1.3 µM | IC50 (PC-3 cells; [2]): 5.7 µg/mL | SI (selectivity index) (PC-3 cells): 1.9 | IC50 (HepG2 cells; [3]): 8 ± 0.5 µM | IC50 (HepG2 cells; [4]): 3.8 µg/mL | SI (selectivity index) (HepG2 cells): 2.8 | IC50 (HCT-116 cells; [5]): 20 ± 1.5 µM | IC50 (HCT-116 cells; [6]): 9.6 µg/mL | SI (selectivity index) (HCT-116 cells): 1.1 | IC50 (Vero-B cells; Chlorocebus sabaeus, Vero B): 22 µM

O=C(c1c[nH]c2ccccc12)[C@@H]1C(c2ccc(F)cc2)[C@@H]2CCCN2[C@@]12C(=O)Nc1ccccc12 (stereo partly drawn) [4g, (2′R,3S,7a′S)-1′-(4-Fluorophenyl)-2′-(1H-indole-3-carbonyl)-1′,2′,5′,6′,7′,7a′-hexahydrospiro[indoline-3,3′-pyrrolizin]-2-one]
melting point: 144 to 146 °C | IC50 (PC-3 cells; [1]): 16.3 ± 30 µM | IC50 (PC-3 cells; [2]): 7.6 µg/mL | SI (selectivity index) (PC-3 cells): 2.5 | IC50 (HepG2 cells; [3]): 20 ± 2 µM | IC50 (HepG2 cells; [4]): 9.3 µg/mL | SI (selectivity index) (HepG2 cells): 2 | IC50 (HCT-116 cells; [5]): 16 ± 1 µM | IC50 (HCT-116 cells; [6]): 7.4 µg/mL | SI (selectivity index) (HCT-116 cells): 2.5 | IC50 (Vero-B cells; Chlorocebus sabaeus, Vero B): 40 µM

O=C(c1c[nH]c2ccccc12)[C@@H]1C(c2cccc(F)c2)[C@@H]2CCCN2[C@@]12C(=O)Nc1ccccc12 (stereo partly drawn) [4h, (2′R,3S,7a′S)-1′-(3-Fluorophenyl)-2′-(1H-indole-3-carbonyl)-1′,2′,5′,6′,7′,7a′-hexahydrospiro[indoline-3,3′-pyrrolizin]-2-one]
melting point: 149 to 151 °C | IC50 (PC-3 cells; [1]): 11.5 ± 11.5 µM | IC50 (PC-3 cells; [2]): 5.4 µg/mL | SI (selectivity index) (PC-3 cells): 1.6 | IC50 (HepG2 cells; [3]): 14 ± 0.22 µM | IC50 (HepG2 cells; [4]): 6.5 µg/mL | SI (selectivity index) (HepG2 cells): 1.3 | IC50 (HCT-116 cells; [5]): 15 ± 1.4 µM | IC50 (HCT-116 cells; [6]): 7 µg/mL | SI (selectivity index) (HCT-116 cells): 1.2 | IC50 (Vero-B cells; Chlorocebus sabaeus, Vero B): 18 µM

O=C(c1c[nH]c2ccccc12)[C@@H]1C(c2cccc(Br)c2)[C@@H]2CCCN2[C@@]12C(=O)Nc1ccccc12 (stereo partly drawn) [4j, (2′R,3S,7a′S)-1′-(3-Bromophenyl)-2′-(1H-indole-3-carbonyl)-1′,2′,5′,6′,7′,7a′-hexahydrospiro[indoline-3,3′-pyrrolizin]-2-one]
melting point: 110 to 112 °C | IC50 (PC-3 cells; [1]): 7 ± 0.2 µM | IC50 (PC-3 cells; [2]): 3.7 µg/mL | IC50 (HepG2 cells; [3]): 8 ± 1 µM | IC50 (HepG2 cells; [4]): 4.2 µg/mL | SI (selectivity index) (HepG2 cells): 2.5 | IC50 (HCT-116 cells; [5]): 9 ± 0.5 µM | IC50 (HCT-116 cells; [6]): 4.7 µg/mL | SI (selectivity index) (HCT-116 cells): 2.2 | IC50 (Vero-B cells; Chlorocebus sabaeus, Vero B): 20 µM

O=C(c1c[nH]c2ccccc12)[C@@H]1C(c2ccc(Br)cc2)[C@@H]2CCCN2[C@@]12C(=O)Nc1ccccc12 (stereo partly drawn) [4f, (2′R,3S,7a′S)-1′-(4-Bromophenyl)-2′-(1H-indole-3-carbonyl)-1′,2′,5′,6′,7′,7a′-hexahydrospiro[indoline-3,3′-pyrrolizin]-2-one]
melting point: 101 to 102 °C | IC50 (PC-3 cells; [1]): 16.3 ± 2.5 µM | IC50 (PC-3 cells; [2]): 8.6 µg/mL | SI (selectivity index) (PC-3 cells): 1.8 | IC50 (HepG2 cells; [3]): 12 ± 1.5 µM | IC50 (HepG2 cells; [4]): 6.3 µg/mL | SI (selectivity index) (HepG2 cells): 2.5 | IC50 (HCT-116 cells; [5]): 21 ± 1.3 µM | IC50 (HCT-116 cells; [6]): 11 µg/mL | SI (selectivity index) (HCT-116 cells): 1.4 | IC50 (Vero-B cells; Chlorocebus sabaeus, Vero B): 30 µM

O=C(c1c[nH]c2ccccc12)[C@@H]1C(c2ccco2)[C@@H]2CCCN2[C@@]12C(=O)Nc1ccccc12 (stereo partly drawn) [4m, (2′R,3S,7a′S)-1′-(Furan-2-yl)-2′-(1H-indole-3-carbonyl)-1′,2′,5′,6′,7′,7a′-hexahydrospiro[indoline-3,3′-pyrrolizin]-2-one]
melting point: 172 to 174 °C | IC50 (PC-3 cells; [1]): 26 ± 1.7 µM | IC50 (PC-3 cells; [2]): 11.3 µg/mL | SI (selectivity index) (PC-3 cells): 1.9 | IC50 (HepG2 cells; [3]): 40 ± 5 µM | IC50 (HepG2 cells; [4]): 17.5 µg/mL | SI (selectivity index) (HepG2 cells): 1.3 | IC50 (HCT-116 cells; [5]): 29 ± 2 µM | IC50 (HCT-116 cells; [6]): 12.7 µg/mL | SI (selectivity index) (HCT-116 cells): 1.7 | IC50 (Vero-B cells; Chlorocebus sabaeus, Vero B): 50 µM

N.N.[Cl][Pt][Cl] [Cisplatin, cis-diamineplatinum(II) dichloride, reference compound]
PC-3 (IC50, μg ml^−1) (PC-3 cells; MTT, 48 h): 1.5 µg/mL | IC50 (PC-3 cells; MTT, 48 h, ± SD of 3 experiments, read-out: PC-3 (IC50)): 5 ± 0.45 µM | HepG2 (IC50, μg ml^−1) (HepG2 cells; MTT, 48 h): 1.7 µg/mL | HCT-116 (IC50, μg ml^−1) (HCT-116 cells; MTT, 48 h): 3.8 µg/mL | IC50 (HCT-116 cells; MTT, 48 h, ± SD of 3 experiments, read-out: HCT-116 (IC50)): 12.6 ± 0.4 µM | IC50 (Vero-B cells): 5 µM
